From US11844823B2, “Beta-hairpin peptidomimetic with elastase inhibitory activity and aerosol dosage forms thereof” (POLYPHOR AG, priority 2016, dated 2023)
Non-standard residues stand in square brackets, D forms with d. Residues, ends and D or L forms follow the SMILES beside them. Gly(octyl) = CCCCCCCC[C@H](N)C(=O)O

Columns and labels:
rats = test: GLP-compliant 28-day inhalation toxicity study in rats; assay type: in vivo, rat
Protocol: In a GLP-compliant 28-day inhalation toxicity study in rats, conducted by Charles River Laboratories Preclinical Services, Tranent, Edinburgh, UK, the formulation described in Example 2 and dilutions thereof as well as the vehicle were administered using the Pari eFlow® XL 30 nebulizer device (Pari Pharma, Starnberg, Germany) for 100 min per day for 28 days, followed by a 2-week recovery period. […] Ten animals were used for the main toxicity study, and 5 additional animals for the recovery phase. Parameters assessed included clinical signs, body weights, food consumption, ophthalmic examination, clinical pathology, gross necropsy findings, organ weights and histopathologic examinations. […] This was associated with reduction in food consumption in treated animals. There was a good recovery in body weight gain during the recovery period between day 28 and 42.
These changes resolved during the recovery period and were considered a non-adverse, adaptive response to mild irritation. […] This slight increase in macrophage accumulation was considered a nonspecific response to the inhalation of high concentrations of material exceeding the clearance capacity of the lung.

cynomolgus monkeys = test: GLP-compliant 28-day inhalation toxicity study in monkeys; assay type: in vivo, cynomolgus monkey
Protocol: In a GLP-compliant 28-day inhalation toxicity study in cynomolgus monkeys, conducted by Charles River Laboratories Preclinical Services, Tranent, Edinburgh, UK, the formulation described in Example 2 and dilutions thereof as well as the vehicle were administered using the Pari eFlow® XL 30 nebulizer device (Pari Pharma, Starnberg, Germany) with an oro-nasal inhalation mask for 60 min per day for 28 days, followed by a 2-week recovery period. […] In total five males and five females were used for each dose of the toxicity study including recovery. Parameters assessed included clinical signs, body weights, electrocardiology, ophthalmic examination, clinical pathology, toxicokinetic parameters in the plasma, gross necropsy findings, organ weights and histopathologic examinations.

healthy subjects = test: First-in-man study in healthy subjects, safety and tolerability of orally inhaled single doses; assay type: in vivo, human
Text: In this randomised, double-blind, placebo-controlled, parallel-group (per dose level) dose-escalation study of inhaled single doses in 48 healthy subjects in six dose groups of eight subjects each, conducted by Inamed GmbH, Gauting, Germany, the controlled oral inhalation of the formulation described in Example 1 and dilutions thereof as well as the placebo (0.5% [w/w] aqueous sodium chloride solution adjusted to pH 5.5 with 1 M HCl pharmaceutical grade) occurred via the Pari eFlow® XL 30 nebulizer device (Pari Pharma GmbH, Starnberg, Germany). The dose levels and corresponding concentrations of cyclo(-OctG-Glu-Thr-Ala-Ser-Ile-Pro-Pro-Gln-Lys-Tyr-^DPro-Pro-) (active compound) are summarized in Table 10.
(§1) The volume of placebo nebulizer solution corresponded to that of the active compound at a particular dose level. The duration of inhalation depended on the total volume of nebulizer solution and ranged between several minutes and roughly one hour. Adverse events were tabulated and summarized according to the current version of Medical Dictionary for Regulatory Activities.

[1] = tested on: patients with cystic fibrosis; test: Phase-1b single ascending dose study in patients with cystic fibrosis, safety and tolerability; assay type: in vivo, human
Text: In this randomised, double-blind, placebo-controlled, parallel-group (per dose level) dose-escalation study, the safety and tolerability of single ascending doses (SAD) of acetate salt of cyclo(-OctG-Glu-Thr-Ala-Ser-Ile-Pro-Pro-Gln-Lys-Tyr-^DPro-Pro-) administered by inhalation in patients with cystic fibrosis (CF) was investigated. Additionally, the pharmacokinetics of the drug following a single ascending dose in plasma and sputum as well as its pharmacodynamic effect on neutrophil elastase activity in sputum were evaluated.
In this study, conducted by Inamed GmbH, Gauting, Germany, 24 subjects with cystic fibrosis, who fulfilled all the inclusion criteria and in whom no exclusion criterion was present, were included and received randomised treatment. They were grouped into 3 dose groups of 8 subjects each. 6 subjects received the formulation described in Example 1 and dilutions thereof and 2 subjects received placebo (0.5% [w/w] aqueous sodium chloride solution adjusted to pH 5.5 with 1 M HCl pharmaceutical grade). The oral inhalation of the above formulation as well as the placebo occurred via the Pari eFlow® XL 30 nebulizer device (Pari Pharma GmbH, Starnberg, Germany). The dose levels and corresponding concentrations of cyclo(-OctG-Glu-Thr-Ala-Ser-Ile-Pro-Pro-Gln-Lys-Tyr-^DPro-Pro-) (active compound) are summarized in Table 14.
as §1, with “was estimated to be between 7” for “depended on the total volume of nebulizer solution”, “20 min.” for “ranged between several minutes and roughly one hour.”

neutrophil elastase = test: Previous intratracheal study in the LPS/fMLP rat model; assay type: in vivo; conditions: intratracheal doses of 0.03 to 3 mg/kg
Text: The doses of fMLP and the time points were chosen based upon published data (see e.g. S. Yasui, A. Nagai, K. Aoshiba et al., Eur. Respir. J., 1995, 8, 1293; T. Yang, J. Zhang, K. Sun et al., Inflamm. Res. 2012, 61, 563; R. Corteling, D. Wyss, A. Trifilieff, BMC Pharmacology, 2002, 2, 1) and experience at Envigo CRS Limited. The dose selection of the drug was based on a previous intratracheal study at Envigo CRS Limited.

Structure (SMILES): CCCCCCCC[C@@H]1NC(=O)[C@@H]2CCCN2C(=O)[C@H]2CCCN2C(=O)[C@H](Cc2ccc(O)cc2)NC(=O)[C@H](CCCCN)NC(=O)[C@H](CCC(N)=O)NC(=O)[C@@H]2CCCN2C(=O)[C@@H]2CCCN2C(=O)[C@H]([C@@H](C)CC)NC(=O)[C@H](CO)NC(=O)[C@H](C)NC(=O)[C@H]([C@@H](C)O)NC(=O)[C@H](CCC(=O)O)NC1=O [cyclo(-OctG-Glu-Thr-Ala-Ser-Ile-Pro-Pro-Gln-Lys-Tyr-^DPro-Pro-)] (cyclo([Gly(octyl)]ETASIPPQKY[dP]P))
- clinical signs or ophthalmic findings (rats; rat, 11, 53 and 119 mg/kg/day): no clinical signs or ophthalmic findings
- histopathology of the larynx (rats; rat, in vivo): focal minimal squamous metaplasia without cellular atypia of dysplasia
- organ weights or gross findings (rats; rat, in vivo): no treatment-related changes
- clinical pathology findings considered toxicologically relevant (rats; rat, haematology, coagulation, clinical chemistry, urinalysis): no findings
- histopathologic findings (cynomolgus monkeys; cynomolgus monkey, in vivo): increased numbers of alveolar macrophages, perivascular/peribronchiolar infiltrates, and granular eosinophilic deposits in the lung and lymphoid hyperplasia in the tracheobronchial lymph nodes
- body weight, clinical signs, ophthalmic, electrocardiographic findings, urinary parameters (cynomolgus monkeys; monkey, 11.2, 30.1 and 112 mg/kg/day): no body weight changes, clinical signs, ophthalmic or electrocardiographic findings or changes in urinary parameters attributable to drug treatment
- death, serious and other significant adverse events (healthy subjects; healthy subjects, single inhaled doses 20-960 mg): No death, no serious adverse events (AE) and no other significant AE
- subjects judging overall tolerability 'very good' or 'good' (healthy subjects; human, in vivo): 97.9%
- total number of AEs (healthy subjects; human, in vivo): 27
- treatment-emergent adverse events (TEAEs) (healthy subjects; human, in vivo): 24
- death, serious and other significant adverse events ([1]; CF patients, single inhaled doses 80, 160, 320 mg): No death, no serious adverse events (AE) and no other significant AE
- TEAEs rated as severe ([1]; human, in vivo): None
- causal relationship of TEAEs to active compound ([1]; human, in vivo): not related
- total number of AEs (all TEAEs) ([1]; human, in vivo): 6
- efficacy in LPS/fMLP animal model (neutrophil elastase): efficacious
